Results: patent publication US8962596B2 (Array BioPharma Inc., priority 2010, dated 2015)

Experiments:
Type in all cases: biochemical
JAK3 = target: T1, JAK3 (Homo sapiens, UniProt P52333); experiment: JAK3 Inhibition Assay (Omnia kinase fluorescence peptide substrate assay); settings: averaged IC50 ranges; assay of Example D; 10 μM (Km app) or 1 mM ATP, 2.5 nM JAK3
T1 construct: purchased Invitrogen Corporation, Carlsbad, Calif; PV4080
T1 sequence (P52333 1-1124): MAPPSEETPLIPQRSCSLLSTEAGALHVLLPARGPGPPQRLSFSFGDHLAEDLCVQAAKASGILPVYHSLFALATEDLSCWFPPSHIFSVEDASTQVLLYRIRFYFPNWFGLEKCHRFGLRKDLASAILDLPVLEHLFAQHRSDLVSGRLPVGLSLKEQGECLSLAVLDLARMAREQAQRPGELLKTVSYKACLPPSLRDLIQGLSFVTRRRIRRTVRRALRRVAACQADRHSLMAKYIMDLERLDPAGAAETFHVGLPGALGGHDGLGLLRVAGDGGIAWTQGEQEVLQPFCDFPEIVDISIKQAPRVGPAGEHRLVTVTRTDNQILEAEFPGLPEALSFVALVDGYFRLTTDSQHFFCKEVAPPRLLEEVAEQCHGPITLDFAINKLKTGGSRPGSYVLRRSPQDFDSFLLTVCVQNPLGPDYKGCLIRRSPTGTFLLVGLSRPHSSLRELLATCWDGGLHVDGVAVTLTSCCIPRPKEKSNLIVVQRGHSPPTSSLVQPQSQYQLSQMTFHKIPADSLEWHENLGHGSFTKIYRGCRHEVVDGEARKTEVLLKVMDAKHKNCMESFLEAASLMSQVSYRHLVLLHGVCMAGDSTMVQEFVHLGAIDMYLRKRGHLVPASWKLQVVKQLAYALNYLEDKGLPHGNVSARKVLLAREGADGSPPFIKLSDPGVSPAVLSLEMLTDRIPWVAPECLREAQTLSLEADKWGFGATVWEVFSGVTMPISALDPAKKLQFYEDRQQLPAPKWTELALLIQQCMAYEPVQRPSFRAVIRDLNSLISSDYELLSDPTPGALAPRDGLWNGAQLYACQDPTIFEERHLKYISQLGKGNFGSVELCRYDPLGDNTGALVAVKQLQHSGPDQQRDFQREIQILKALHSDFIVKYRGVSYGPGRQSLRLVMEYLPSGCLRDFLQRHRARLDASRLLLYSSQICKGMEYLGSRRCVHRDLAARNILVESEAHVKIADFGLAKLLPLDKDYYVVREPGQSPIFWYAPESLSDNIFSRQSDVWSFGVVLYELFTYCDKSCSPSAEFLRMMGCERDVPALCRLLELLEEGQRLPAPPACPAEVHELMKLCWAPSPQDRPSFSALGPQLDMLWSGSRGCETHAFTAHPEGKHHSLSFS
Procedure, shortened: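 Kinase at 2.5 nM with 10 µM Omnia Y7 peptide and 10 µM (Km app) or 1 mM ATP in 25 mM HEPES pH 7.4, 10 mM MgCl2, 1 mM DTT, 0.01% Triton X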

JAK2 = target: T2, JAK2 (Homo sapiens, UniProt O60674); experiment: JAK2 Inhibition Assay (Omnia kinase fluorescence peptide substrate assay); settings: averaged IC50 ranges; assay of Example C; 25 μM (Km app) or 1 mM ATP, 5 nM JAK2
T2 construct: purchased Invitrogen Corporation, Carlsbad, Calif; PV4288
Procedure, shortened: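 A 10-point, 3-fold compound series (top 10 μM, 2% DMSO) was tested against 5 nM JAK2 with 10 μM Omnia Y7 substrate and either 1 mM or 25 μM (Km app) ATP. Buffer: pH 7.4 HEPES, MgCl2, Triton X-100, DTT. Sox fluorescence was monitored kinetically for 45 min; IC50 is the concentration giving 50 POC on a 4-parameter fit.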

Human Tyk2 kinase domain = target: T3, Human Tyk2 kinase domain (Homo sapiens, UniProt P29597); experiment: Tyk2 Inhibition Assay (Omnia kinase fluorescence peptide substrate assay); settings: averaged IC50 ranges; assay of Example A; 10 μM (Km app) or 1 mM ATP, 2 nM Tyk2
T3 construct: comprising amino acids 886 to 1187 with 10 additional histidine residues; 10xHis (histidine tag) (C, cleaved yes); made in house
T3 sequence (P29597 886-1187): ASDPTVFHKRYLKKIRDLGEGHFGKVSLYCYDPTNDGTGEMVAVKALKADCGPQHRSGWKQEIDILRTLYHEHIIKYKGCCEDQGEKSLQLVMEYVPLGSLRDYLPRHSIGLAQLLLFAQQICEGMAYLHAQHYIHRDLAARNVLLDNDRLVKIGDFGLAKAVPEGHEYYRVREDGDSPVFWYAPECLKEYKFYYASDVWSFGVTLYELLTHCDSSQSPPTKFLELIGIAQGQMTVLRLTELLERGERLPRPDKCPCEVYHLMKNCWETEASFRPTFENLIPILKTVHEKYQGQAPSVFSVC
Procedure, shortened: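 2 nM His-tag-cleaved kinase domain (aa 886–1187) with 8 μM Omnia Y12 peptide, 10 μM (Km app) or 1 mM ATP, pH 7.4 HEPES/10 mM MgCl2, 2% DMSO. Fluorescence (ex 360/em 485 nm) every 50 s for 45 min; IC50 from 4-parameter fit of POC, top dose 10 μM.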

JAK1 = target: T4, JAK1 (Homo sapiens, UniProt P23458); experiment: JAK1 Inhibition Assay (Omnia kinase fluorescence peptide substrate assay); settings: averaged IC50 ranges; assay of Example B; 40 μM (Km app) or 1 mM ATP, 15 nM JAK1
T4 construct: purchased Invitrogen Corporation, Carlsbad, Calif; PV4775
T4 sequence (P23458 whole entry): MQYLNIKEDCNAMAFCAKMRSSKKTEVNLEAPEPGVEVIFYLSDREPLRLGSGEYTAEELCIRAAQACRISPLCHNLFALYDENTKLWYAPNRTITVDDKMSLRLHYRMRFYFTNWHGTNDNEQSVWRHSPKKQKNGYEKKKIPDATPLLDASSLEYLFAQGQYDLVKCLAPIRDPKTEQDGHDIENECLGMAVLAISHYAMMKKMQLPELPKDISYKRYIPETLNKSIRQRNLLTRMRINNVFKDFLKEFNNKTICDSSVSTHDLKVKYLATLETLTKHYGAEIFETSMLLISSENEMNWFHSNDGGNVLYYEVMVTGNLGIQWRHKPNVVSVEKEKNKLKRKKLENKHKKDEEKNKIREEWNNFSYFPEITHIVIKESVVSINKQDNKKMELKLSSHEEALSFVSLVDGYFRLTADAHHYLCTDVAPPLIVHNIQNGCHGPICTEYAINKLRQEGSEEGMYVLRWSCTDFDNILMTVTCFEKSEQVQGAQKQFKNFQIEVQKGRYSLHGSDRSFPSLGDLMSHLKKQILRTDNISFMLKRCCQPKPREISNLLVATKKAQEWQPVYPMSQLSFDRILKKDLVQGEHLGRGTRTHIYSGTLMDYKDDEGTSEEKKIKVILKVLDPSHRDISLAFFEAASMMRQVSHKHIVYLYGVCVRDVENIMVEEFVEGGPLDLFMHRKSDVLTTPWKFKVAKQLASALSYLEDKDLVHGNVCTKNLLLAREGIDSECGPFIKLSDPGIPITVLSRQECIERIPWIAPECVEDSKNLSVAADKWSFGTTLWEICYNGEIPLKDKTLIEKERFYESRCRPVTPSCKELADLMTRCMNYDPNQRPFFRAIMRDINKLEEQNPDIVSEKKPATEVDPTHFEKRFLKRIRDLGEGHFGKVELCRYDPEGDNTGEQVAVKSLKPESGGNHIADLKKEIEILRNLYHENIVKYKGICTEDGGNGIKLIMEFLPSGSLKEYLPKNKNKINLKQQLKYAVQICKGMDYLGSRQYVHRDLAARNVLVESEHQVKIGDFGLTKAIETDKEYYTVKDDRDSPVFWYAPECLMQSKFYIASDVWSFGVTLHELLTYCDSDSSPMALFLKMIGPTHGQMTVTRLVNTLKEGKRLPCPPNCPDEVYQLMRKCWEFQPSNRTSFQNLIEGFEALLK

T2 sequence (O60674 whole entry): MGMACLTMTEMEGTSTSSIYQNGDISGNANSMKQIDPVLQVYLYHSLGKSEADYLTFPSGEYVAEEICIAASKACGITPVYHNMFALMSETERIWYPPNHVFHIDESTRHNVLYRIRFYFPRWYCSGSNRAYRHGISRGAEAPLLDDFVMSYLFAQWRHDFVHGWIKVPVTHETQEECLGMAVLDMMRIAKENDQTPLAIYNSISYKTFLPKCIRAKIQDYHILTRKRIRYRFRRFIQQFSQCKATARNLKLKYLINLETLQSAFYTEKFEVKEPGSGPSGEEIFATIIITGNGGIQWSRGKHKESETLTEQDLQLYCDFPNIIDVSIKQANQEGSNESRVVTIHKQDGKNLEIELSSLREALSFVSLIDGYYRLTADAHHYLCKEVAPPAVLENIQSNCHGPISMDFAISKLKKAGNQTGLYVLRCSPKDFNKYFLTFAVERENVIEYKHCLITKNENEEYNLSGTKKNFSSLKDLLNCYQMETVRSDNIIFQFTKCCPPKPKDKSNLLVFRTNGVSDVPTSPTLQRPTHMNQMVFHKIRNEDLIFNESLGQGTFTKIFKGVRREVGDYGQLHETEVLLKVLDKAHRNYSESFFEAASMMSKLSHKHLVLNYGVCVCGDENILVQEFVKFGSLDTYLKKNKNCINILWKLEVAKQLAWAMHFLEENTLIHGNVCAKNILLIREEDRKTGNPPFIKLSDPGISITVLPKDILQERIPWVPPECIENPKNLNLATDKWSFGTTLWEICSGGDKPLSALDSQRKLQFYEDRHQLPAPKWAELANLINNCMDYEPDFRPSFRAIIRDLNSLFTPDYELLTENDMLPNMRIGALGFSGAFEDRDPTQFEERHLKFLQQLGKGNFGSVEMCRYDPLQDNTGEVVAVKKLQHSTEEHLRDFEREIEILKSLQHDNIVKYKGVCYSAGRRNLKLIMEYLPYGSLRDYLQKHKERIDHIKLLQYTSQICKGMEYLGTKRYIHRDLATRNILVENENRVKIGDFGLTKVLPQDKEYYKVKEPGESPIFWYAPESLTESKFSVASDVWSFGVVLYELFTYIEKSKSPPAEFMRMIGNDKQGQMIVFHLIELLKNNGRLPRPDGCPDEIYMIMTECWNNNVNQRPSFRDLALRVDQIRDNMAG

Row | SMILES | IC50 (JAK3) | IC50 (JAK2) | IC50 (Human Tyk2 kinase domain) | IC50 (JAK1)
1 | Cc1cn(-c2cc3nccn3c(-c3cnn(C(CC#N)C4CC4)c3)n2)cn1 (stereo not shown) [Example 46, 3-Cyclopropyl-3-(4-(7-(4-methyl-1H-imidazol-1-yl)imidazo[1,2-c]pyrimidin-5-yl)-1H-pyrazol-1-yl)propanenitrile] | > 1000 nM | 100 to 1000 nM | 10 to 100 nM | > 1000 nM
2 | N#CCC1(n2cc(-c3nc(C4CC4)cc4nccn34)cn2)CN(CC(F)(F)F)C1 [Example 149, 2-(3-(4-(7-cyclopropylimidazo[1,2-c]pyrimidin-5-yl)-1H-pyrazol-1-yl)-1-(2,2,2-trifluoroethyl)azetidin-3-yl)acetonitrile] | > 1000 nM | > 1000 nM | 100 to 1000 nM | > 1000 nM
3 | Cn1cc(-c2cc3nccn3c(-c3cnn(C4(CC#N)CN(CCC(F)(F)F)C4)c3)n2)cn1 [Example 86, 2-(3-(4-(7-(1-methyl-1H-pyrazol-4-yl)imidazo[1,2-c]pyrimidin-5-yl)-1H-pyrazol-1-yl)-1-(3,3,3-trifluoropropyl)azetidin-3-yl)acetonitrile] | > 1000 nM | 100 to 1000 nM | 10 to 100 nM | 100 to 1000 nM
4 | Cn1cc(-c2cc3nccn3c(-c3cnn(C4(CC#N)CN(C(=O)C5(C(F)(F)F)CC5)C4)c3)n2)cn1 [Example 65, 2-(3-(4-(7-(1-Methyl-1H-pyrazol-4-yl)imidazo[1,2-c]pyrimidin-5-yl)-1H-pyrazol-1-yl)-1-(1-(trifluoromethyl)cyclopropanecarbonyl)azetidin-3-yl)acetonitrile] | 100 to 1000 nM | 10 to 100 nM | 10 to 100 nM | 10 to 100 nM
5 | Cn1cc(-c2cc3nccn3c(-c3cnn(C(CC#N)c4cccc(C(F)(F)F)c4)c3)n2)cn1 (stereo not shown) [Example 15, 3-(4-(7-(1-methyl-1H-pyrazol-4-yl)imidazo[1,2-c]pyrimidin-5-yl)-1H-pyrazol-1-yl)-3-(3-(trifiuoromethyl)phenyl)propanenitrile] | 100 to 1000 nM | 10 to 100 nM | < 10 nM | 10 to 100 nM
6 | COc1ncc(-c2cc3nccn3c(-c3cnn(C4(CC#N)CN(S(=O)(=O)C(F)(F)F)C4)c3)n2)cn1 [Example 142, 2-(3-(4-(7-(2-methoxypyrimidin-5-yl)imidazo[1,2-c]pyrimidin-5-yl)-1H-pyrazol-1-yl)-1-(trifluoromethylsulfonyl)azetidin-3-yl)acetonitrile] | > 1000 nM | > 1000 nM | 10 to 100 nM | > 1000 nM
7 | N#CCC(C1CC1)n1cc(-c2nc(-c3ccc4c(c3)CNCC4)cc3nccn23)cn1 (stereo not shown) [Example 54, 3-Cyclopropyl-3-(4-(7-(1,2,3,4-tetrahydroisoquinolin-7-yl)imidazo[1,2-c]pyrimidin-5-yl)-1H-pyrazol-1-yl)propanenitrile] | 100 to 1000 nM | 10 to 100 nM | < 10 nM | 10 to 100 nM
8 | Cn1cc(-c2cc3nccn3c(-c3cnn(C(CC#N)C(C)(C)C)c3)n2)cn1 (stereo not shown) [Example 18, 4,4-dimethyl-3-(4-(7-(1-methyl-1H-pyrazol-4-yl)imidazo[1,2-c]pyrimidin-5-yl)-1H-pyrazol-1-yl)pentanenitrile] | > 1000 nM | 100 to 1000 nM | 10 to 100 nM | 100 to 1000 nM
9 | Cn1cc(-c2cc3nccn3c(-c3cnn(C4(CC#N)CCN(CC(F)(F)F)C4)c3)n2)cn1 (stereo not shown) [Example 135, 2-(3-(4-(7-(1-methyl-1H-pyrazol-4-yl)imidazo[1,2-c]pyrimidin-5-yl)-1H-pyrazol-1-yl)-1-(2,2,2-trifluoroethyl)pyrrolidin-3-yl)acetonitrile] | 100 to 1000 nM | 10 to 100 nM | 10 to 100 nM | 100 to 1000 nM
10 | Cn1cc(-c2cc3nccn3c(-c3cnn(C4(CC#N)CN(CC(F)F)C4)c3)n2)cn1 [Example 69, 2-(1-(2,2-dDifluoroethyl)-3-(4-(7-(1-methyl-1H-pyrazol-4-yl)imidazo[1,2-c]pyrimidin-5-yl)-1H-pyrazol-1-yl)azetidin-3-yl)acetonitrile] | > 1000 nM | 10 to 100 nM | < 10 nM | 100 to 1000 nM
